The record followed here is patent publication US20230027295A1, “FXIA INHIBITORS AND PREPARATION METHOD THEREFOR AND PHARMACEUTICAL USE THEREOF” (Shenzhen Salubris Pharmaceuticals Co., Ltd., priority 2019, published 2023).

By AUC is commonly meant the area under the concentration-time curve, a measure of exposure. What is called Cmax is the highest concentration seen after dosing. Broadly, the Tmax is the time at which the peak concentration occurs. The clearance is the volume of plasma or blood freed of the substance per unit of time. For orientation: half-life means how long it takes for the measured level to halve. For orientation: IC50 means the point on the concentration scale where inhibition reaches its midpoint.

One data set is described as follows: Rat pharmacokinetics. The class given is in vivo, SD rats. Set-up: AUC: concentration or dose not given beside the values. The conditions noted are these: for AUC / Cmax / Tmax / clearance / half-life / Vd: male, SD, plasma; for Vd: read-out: Vss. The text has this:
Example 53: Investigation of the Pharmacokinetic Characteristics of the Compounds of the Present Invention
SD rats: male, 180-250 g, purchased from Guangdong Medical Laboratory Animal Center. Cynomolgus monkey: male, 4-6 kg, purchased from Guangzhou Chunsheng Biological Research Institute Co., Ltd. Beagle dog: male, 8-12 kg, developed in Kanglong Chemical (Ningbo) New Drug Technology Co., Ltd.
Reagents: DMSO (dimethyl sulfoxide), PEG-400 (polyethylene glycol 400), normal brine, heparin, acetonitrile, formic acid, and propranolol (internal standard) are commercially available.
Instrumentation: Thermo Fisher Scientific LC-MS (U300 UPLC, TSQ […] ULTRA triple quadrupole mass spectrometer).
The compound was weighed and dissolved in DMSO-PEG-400-physiological brine (5:60:35, v/v/v) system. After the rats/monkeys were administered intravenously or by gavage, 200 μL of venous blood was collected at 5 min (not collected when administered by gavage), 15 min, 30 min, 1 h, 2 h, 4 h, 6 h, 8 h, and 24 h in heparinized EP tubes, centrifuged at 12000 rpm for 2 min, and the plasma was frozen at −80° C. for testing. A certain amount of the test substance was precisely weighed and dissolved in DMSO to 1 mg/mL, which was used as a stock solution. An appropriate amount of compound stock solution was accurately pipetted and diluted with acetonitrile to prepare a standard series of solutions. 20 μL of each of the above standard series solutions were accurately pipetted, added with 180 μL of blank plasma, vortexed and mixed to prepare plasma samples equivalent to plasma concentrations of 1, 3, 10, 30, 100, 300, 1000, 3000 and 5000 ng/mL. Two-sample analysis was performed for each concentration to establish a standard curve. 20 μL of plasma was taken out, added with 200 μL of internal standard propranolol (5 ng/mL) in acetonitrile, vortexed and mixed. It was centrifuged at 4000 rpm for 5 min, and the supernatant was collected for LC-MS analysis. LC-MS detection conditions were as follows:
Chromatographic column: Thermo Scientific […] GOLD C-18 UPLC column, 100*2.1 mm, 1.9 μm.
Mobile phase: water (0.1% formic acid)-acetonitrile for gradient elution according to the table below.
After blood drug concentrations being detected by LC-MS, WinNonlin 6.1 software was used to calculate pharmacokinetic parameters by non-compartmental model method.

In the next data set the test system is human plasma. The data set is described as follows: Anticoagulant effect on human plasma in vitro (APTT determination). The format is biochemical. Particulars: for aPTT EC1.5×: concentration giving APTT of 1.5× blank control; for aPTT EC2×: concentration giving APTT of 2× blank control. Here is the method: Example 51: Determination of the Anticoagulant Effect of the Compounds of the Present Invention on Human Plasma In Vitro
Plasma: Human blood was collected in a vacuum blood collection tube containing 3.2% sodium citrate (volume ratio 1:9), centrifuged at 3000 rpm for 10 min at room temperature, and the plasma was collected, divided into EP tubes, and stored at −80° C.
Reagents: APTT assay kit (Activated partial thromboplastin time assay kit, mindray), calcium chloride solution.
Instrument: coagulation meter (mindray, C2000-A)
The frozen human plasma in aliquots was thawed at room temperature and mixed well. 10 mM test compound dissolved in 100% DMSO was diluted with 100% DMSO to 1500, 750, 375, 187.5, 93.75, 46.88, 23.44, 11.72 μM. 98 μL of human plasma was added to a 1.5 mL EP tube, then 2 μL of compounds of different concentrations were added, and 2 μL of 100% DMSO was added for the blank group. They were incubated under a water bath at 37° C. for 10 min, and the samples were placed in the corresponding position of the coagulation analyzer to conduct APTT determination of the compounds.
Curve fitting was performed with GraphPad Prism software, and EC1.5× and EC2× values were calculated respectively, i.e., the concentrations of the compounds corresponding to the APTT of 1.5× and 2× blank control group.

The target of the next data set is Human Factor XIa (Homo sapiens, UniProt P03951). The data set is described as follows: Inhibition of human coagulation factor XIa by absorptiometry (substrate S-2366). The class given is biochemical. The conditions noted are these: 37° C., 20 min incubation, absorbance 405 nm; read-out: hFXIa IC50. Here is the method:
Example 50: Detection of the Biological Activity of the Compounds of the Present Invention on the Inhibition of Human Coagulation Factor XIa by Absorptiometry
Buffer: 145 mM NaCl, 5 mM KCl, 1 mg/mL PEG 8000, 30 mM HEPES, pH 7.4
10 mM test compound dissolved in 100% DMSO was diluted with 100% DMSO to […]; 98 μL of FXIa enzyme solution (77.7 ng/mL) was added to each well of a 96-well plate, and 98 μL of buffer was added to the blank wells. 2 μL of compounds of different concentrations were added, and the blank and control wells were added with DMSO instead. They were mixed with a shaker, and incubated at 37° C. for 20 minutes.
Finally, 100 μL of 800 μM substrate was added to each well, and its absorbance was measured at 405 nm.

Chain of Human Factor XIa (P03951 388-625 limits assumed): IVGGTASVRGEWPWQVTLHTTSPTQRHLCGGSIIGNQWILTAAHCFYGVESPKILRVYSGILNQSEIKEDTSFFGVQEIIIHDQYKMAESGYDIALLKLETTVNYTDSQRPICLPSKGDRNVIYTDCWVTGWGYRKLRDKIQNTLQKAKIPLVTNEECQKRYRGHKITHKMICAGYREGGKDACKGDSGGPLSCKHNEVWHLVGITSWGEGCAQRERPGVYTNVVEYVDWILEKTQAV
Chain of Human Factor XIa (P03951 19-387 partner limits assumed): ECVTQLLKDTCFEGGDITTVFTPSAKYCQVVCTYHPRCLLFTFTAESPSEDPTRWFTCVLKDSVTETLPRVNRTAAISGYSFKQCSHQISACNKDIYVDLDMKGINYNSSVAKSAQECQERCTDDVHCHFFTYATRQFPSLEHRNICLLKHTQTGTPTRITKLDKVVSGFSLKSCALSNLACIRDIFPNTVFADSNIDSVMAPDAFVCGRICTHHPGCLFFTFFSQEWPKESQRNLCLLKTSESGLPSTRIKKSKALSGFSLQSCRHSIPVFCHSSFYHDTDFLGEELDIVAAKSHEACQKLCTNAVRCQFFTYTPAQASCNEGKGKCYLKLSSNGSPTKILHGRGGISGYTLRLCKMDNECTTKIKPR

`O=C(O)c1ccc(NC(=O)[C@H](Cc2ccccc2)n2cnc(-c3cc(Cl)ccc3-n3cc(Cl)nn3)cc2=O)cc1` [Compound A, (S)-4-(2-(4-(5-chloro-2-(4-chloro-1H-1,2,3-triazol-1-yl)phenyl)-6-oxopyrimidin-1(6H)-yl)-3-phenylpropanamido)benzoic acid, reference compound] yielded a F in the data set “Rat pharmacokinetics” (ig) of 8.2%. In “Rat pharmacokinetics” (iv), the AUC was determined as 1410 ng·h/mL, the highest concentration (Cmax) was determined as 4600 ng/mL, the Tmax was 4.98 min and the clearance was 11.9 mL/min/kg. For the same compound, in the data set “Rat pharmacokinetics” (iv), the half-life was 35.3 min and the Vd came to 0.124 L/kg. Further, in the data set “Rat pharmacokinetics” (po, ig), the AUC stood at 576 ng·h/mL, the Cmax turned out to be 180 ng/mL, the Tmax stood at 30 min and the half-life was 75.6 min.

`CC(=O)c1ccc(Cl)cc1-c1cnn([C@@H](Cc2ccccc2)C(=O)Nc2ccc(C(=O)O)cc2)c(=O)c1` [Example 1, (S)-4-(2-(4-(2-acetyl-5-chlorophenyl)-6-oxopyridazin-1(6H)-yl)-3-phenylpropanamido)benzoic acid]: in the data set with human plasma, the “aPTT EC1.5×” value was 9.31 µM and the “aPTT EC2×” value was more than 30 µM.

With `COc1nn(C(Cc2ccc(Br)cc2)C(=O)Nc2ccc(C(=O)O)cc2)c(=O)cc1-c1cc(Cl)ccc1C(C)=O` (stereo not drawn) [Example 3, 4-(2-(4-(2-acetyl-5-chlorophenyl)-3-methoxy-6-oxopyridazin-1(6H)-yl)-3-(4-bromophenyl)propanamido)benzoic acid], at Human Factor XIa, the IC50 turned out to be 51.2 nM.

`CC(=O)c1ccc(Cl)cc1-c1cc(=O)n([C@@H](Cc2ccccc2)C(=O)Nc2ccc(C(=O)O)cc2)nc1OCCO` [Example 6, (S)-4-(2-(4-(2-acetyl-5-chlorophenyl)-3-(2-hydroxyethoxy)-6-oxopyridazine-1(6H)-yl)-3-phenylpropanamido)benzoic acid]: in the data set with human plasma, the “aPTT EC1.5×” value is 0.771 µM and the “aPTT EC2×” value was 2.892 µM. The F in “Rat pharmacokinetics” (ig) was found to be 1.7%. In “Rat pharmacokinetics” (iv), the AUC was 604 ng·h/mL, the concentration peaked (Cmax) at 1370 ng/mL, the Tmax came to 4.98 min and the clearance is 27.6 mL/min/kg. For the same compound, in “Rat pharmacokinetics” (iv), the half-life is 9.72 min and the Vd was 0.432 L/kg. For the same compound, in “Rat pharmacokinetics” (po, ig), the Cmax was 30.5 ng/mL and the Tmax stood at 60 min.

On to `COc1nn([C@@H](Cc2ccccc2)C(=O)Nc2ccc(C(=O)O)c(F)c2)c(=O)cc1-c1cc(Cl)ccc1C(C)=O` [Example 14, (S)-4-(2-(4-(2-acetyl-5-chlorophenyl)-3-methoxy-6-oxopyridazin-1(6H)-yl)-3-phenylpropanamido)-2-fluorobenzoic acid], for which the IC50 at Human Factor XIa was 59.3 nM.

Regarding `COc1nn([C@@H](Cc2ccccc2)C(=O)Nc2ccc(C(=O)O)c(Cl)c2)c(=O)cc1-c1cc(Cl)ccc1C(C)=O` [Example 27, (S)-4-(2-(4-(2-acetyl-5-chlorophenyl)-3-methoxy-6-oxopyridazin-1(6H)-yl)-3-phenylpropanamido)-2-chlorobenzoic acid], on Human Factor XIa, the IC50 came to 79.5 nM.

Take `COc1cc(NC(=O)[C@H](Cc2ccccc2)n2nc(OC)c(-c3cc(Cl)ccc3C(C)=O)cc2=O)ccc1C(=O)O` [Example 28, (S)-4-(2-(4-(2-acetyl-5-chlorophenyl)-3-methoxy-6-oxopyridazin-1(6H)-yl)-3-phenylpropan amido)-2-methoxybenzoic acid]: the IC50 on Human Factor XIa came to 218 nM.

Regarding `COc1nn([C@@H](Cc2ccccc2)C(=O)Nc2ccc(C(=O)O)c(O)c2)c(=O)cc1-c1cc(Cl)ccc1C(C)=O` [Example 29, (S)-4-(2-(4-(2-acetyl-5-chlorophenyl)-3-methoxy-6-oxopyridazin-1(6H)-yl)-3-phenylpropan amido)-2-hydroxybenzoic acid], the IC50 on Human Factor XIa is 63.8 nM.

Turning to `CC(=O)c1ccc(Cl)cc1-c1cc(=O)n([C@@H](Cc2ccccc2)C(=O)Nc2ccc(C(=O)O)cc2)nc1O` [Example 34, (S)-4-(2-(4-(2-acetyl-5-chlorophenyl)-3-hydroxy-6-oxopyridazin-1(6H)-yl)-3-phenylpropanamido)benzoic acid], the concentration for half-maximal inhibition (IC50) on Human Factor XIa came to 140 nM.
